Measurements: paper PMC10625055, “A novel Bruton's tyrosine kinase inhibitor JDB175 shows potent efficacy to suppress central nervous system lymphoma” (MedComm, 2023)

Target: Bruton's tyrosine kinase (BTK) (Homo sapiens, UniProt Q06187)
Experiment: radiometric kinase assay, recombinant human kinase
Format: biochemical

Chain of Bruton's tyrosine kinase (BTK) (Q06187 2-659): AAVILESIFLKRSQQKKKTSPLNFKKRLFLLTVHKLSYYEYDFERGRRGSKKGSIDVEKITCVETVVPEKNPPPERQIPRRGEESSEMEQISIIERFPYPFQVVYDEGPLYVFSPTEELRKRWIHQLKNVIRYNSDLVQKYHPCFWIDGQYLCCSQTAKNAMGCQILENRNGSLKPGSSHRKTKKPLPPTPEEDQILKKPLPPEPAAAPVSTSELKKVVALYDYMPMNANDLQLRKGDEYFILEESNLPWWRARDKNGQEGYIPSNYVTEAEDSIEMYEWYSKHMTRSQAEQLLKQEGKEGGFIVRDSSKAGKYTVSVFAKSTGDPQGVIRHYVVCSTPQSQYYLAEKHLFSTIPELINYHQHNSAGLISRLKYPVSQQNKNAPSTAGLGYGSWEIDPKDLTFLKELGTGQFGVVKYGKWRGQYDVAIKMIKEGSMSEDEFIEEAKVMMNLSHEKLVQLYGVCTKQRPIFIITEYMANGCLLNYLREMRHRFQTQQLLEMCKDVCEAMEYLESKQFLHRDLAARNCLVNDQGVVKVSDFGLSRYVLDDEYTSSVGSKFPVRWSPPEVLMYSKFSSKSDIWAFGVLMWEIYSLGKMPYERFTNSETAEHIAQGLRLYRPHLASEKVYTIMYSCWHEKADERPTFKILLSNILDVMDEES

IC50: 2.1 nM
Structure (SMILES): C=CC(=O)N1CCC[C@@H](c2nn(-c3ccc(Oc4cccc(F)c4F)cc3)c3cncc(F)c23)C1 [JDB175]
